In patent US11786548B2, “Trace element compositions, methods of making and use” (priority 2020, dated 2023):
Several values for one entry are separate records, joined by “and”; a condition that tells them apart may be missing. Equal entries are not always repeated.

Experiment: Stability study of injectable trace element composition in parenteral nutrition admixtures (assay test for zinc, copper, selenium, manganese)
Assay type: physicochemical
Excerpt: In order to establish stability data for parenteral nutrition admixed with the injectable compositions of trace elements, we conducted a stability study of injectable trace element composition (trace elements injectable composition, USP) in parenteral nutrition admixtures (assay test); a pH study of parenteral nutrition (PN) admixtures upon addition of injectable trace element composition (trace elements injectable composition, USP); a compatibility study of injectable trace element composition (trace elements injectable composition, USP) in parenteral nutrition admixtures; and a reduced inoculation antimicrobial effectiveness study for injectable trace element composition (trace elements injectable composition, USP) in parenteral nutrition admixtures. […]

Structure (SMILES) | Assay Day 0 | Assay Day 5 | Assay Day 7 | Assay Day 10 | Assay Day 14
O.O.O.O.O.O=S(=O)([O-])[O-].[Cu+2] [Copper, cupric sulfate pentahydrate] | 109.7% | 98.7% and 98.8% | 97.8% | 99.9% | 105.5% and 106.0%
O.O.O.O.O.O.O.O=S(=O)([O-])[O-].[Zn+2] [Zinc, zinc sulfate heptahydrate] | 96.5% and 98.5% | 93.9% and 94.4% | 93.8% and 96.5% | 97.0% and 96.2% | 96.0% and 96.3%
